{"source": "patent US10376520B2", "about": "“Methods for the treatment of cardiovascular disorders” (Galapagos NV, priority 2015, dated 2019)", "system": "RA patients", "assay": "Atherogenic index, Study 2 (RA patients, monotherapy)", "format": "in vivo, human", "description": "As used herein, the term ‘atherogenic index’ refers to\nDouble-blind, placebo-controlled, monotherapy study in subjects with moderately to severely active RA who have an inadequate response to methotrexate (MTX) (oral or parenteral).\nTwelve weeks of treatment with Compound 1 (dosed as a [Compound 1:HCl:3H2O]) at 50 mg, 100 mg, or 200 mg q.d.; or placebo. At Week 12, all subjects on placebo and the subjects on the 50 mg dose who have not achieved 20% improvement in swollen joint count (SJC66) and tender joint count (TJC68) will be assigned to 100 mg q.d. in a blinded fashion and will continue treatment until Week 24. Subjects in the other groups will maintain their randomized treatment until Week 24.\nThe atherogenic index has been identified to be a good predictor of cardiovascular disorders risks and is calculated as follows: […]", "key": {"[1]": {"conditions": "Placebo switching to 100 mg q.d., week 16"}, "[2]": {"conditions": "Placebo switching to 100 mg q.d., week 20"}, "[3]": {"conditions": "Placebo switching to 100 mg q.d., week 24"}}}
{"smiles": "O=C(Nc1nc2cccc(-c3ccc(CN4CCS(=O)(=O)CC4)cc3)n2n1)C1CC1", "note": "[Compound 1, cyclopropanecarboxylic acid {5-[4-(1,1-dioxo-thiomorpholin-4-ylmethyl)-phenyl]-[1,2,4]triazolo[1,5-a]pyridin-2yl}-amide]", "values": [{"measurement": "Atherogenic index Median CFB - 12 weeks results", "setting": "100 mg q.d., week 4", "result": -0.10, "unit": "mmol/L"}, {"measurement": "Atherogenic index Median CFB - 24 weeks results", "setting": "100 mg q.d., week 4", "result": -0.10, "unit": "mmol/L"}, {"measurement": "Atherogenic index Median percentage CFB - 12 weeks results", "setting": "100 mg q.d., week 4", "result": "−3.65", "unit": "%"}, {"measurement": "Atherogenic index Median percentage CFB - 24 weeks results", "setting": "100 mg q.d., week 4", "result": "−3.65", "unit": "%"}, {"measurement": "Atherogenic index Mean CFB - 12 weeks results", "setting": "100 mg q.d., week 8", "result": -0.13, "unit": "mmol/L"}, {"measurement": "Atherogenic index Mean percentage CFB - 12 weeks results", "setting": "100 mg q.d., week 8", "result": "−3.37", "unit": "%"}, {"measurement": "Atherogenic index Mean percentage CFB - 24 weeks results", "setting": "100 mg q.d., week 8", "result": "−3.37", "unit": "%"}, {"measurement": "Atherogenic index Median CFB - 12 weeks results", "setting": "100 mg q.d., week 8", "result": -0.10, "unit": "mmol/L"}, {"measurement": "Atherogenic index Median CFB - 24 weeks results", "setting": "100 mg q.d., week 8", "result": -0.10, "unit": "mmol/L"}, {"measurement": "Atherogenic index Median percentage CFB - 24 weeks results", "setting": "100 mg q.d., week 8", "result": "−1.45", "unit": "%"}, {"measurement": "Atherogenic index Mean CFB - 12 weeks results", "setting": "100 mg q.d., week 12", "result": -0.07, "unit": "mmol/L"}, {"measurement": "Atherogenic index Mean percentage CFB - 24 weeks results", "setting": "100 mg q.d., week 12", "result": "−1.37", "unit": "%"}, {"measurement": "Atherogenic index Median CFB - 12 weeks results", "setting": "100 mg q.d., week 12", "result": -0.10, "unit": "mmol/L"}, {"measurement": "Atherogenic index Median CFB - 24 weeks results", "setting": "100 mg q.d., week 12", "result": -0.10, "unit": "mmol/L"}, {"measurement": "Atherogenic index Median percentage CFB - 12 weeks results", "setting": "100 mg q.d., week 12", "result": "−2.78", "unit": "%"}, {"measurement": "Atherogenic index Median percentage CFB - 24 weeks results", "setting": "100 mg q.d., week 12", "result": "−2.78", "unit": "%"}, {"measurement": "Atherogenic index Mean percentage CFB - 24 weeks results", "setting": "100 mg q.d., week 16", "result": "−4.43", "unit": "%"}, {"measurement": "Atherogenic index Median CFB - 24 weeks results", "setting": "100 mg q.d., week 16", "result": -0.20, "unit": "mmol/L"}, {"measurement": "Atherogenic index Median percentage CFB - 24 weeks results", "setting": "100 mg q.d., week 16", "result": "−4.76", "unit": "%"}, {"measurement": "Atherogenic index Mean percentage CFB - 24 weeks results", "setting": "100 mg q.d., week 20", "result": "−2.50", "unit": "%"}, {"measurement": "Atherogenic index Median CFB - 24 weeks results", "setting": "100 mg q.d., week 20", "result": 0.00, "unit": "mmol/L"}, {"measurement": "Atherogenic index Median percentage CFB - 24 weeks results", "setting": "100 mg q.d., week 20", "result": 0.00, "unit": "%"}, {"measurement": "Atherogenic index Mean percentage CFB - 24 weeks results", "setting": "100 mg q.d., week 24", "result": "−0.41", "unit": "%"}, {"measurement": "Atherogenic index Median CFB - 24 weeks results", "setting": "100 mg q.d., week 24", "result": 0.00, "unit": "mmol/L"}, {"measurement": "Atherogenic index Median percentage CFB - 24 weeks results", "setting": "100 mg q.d., week 24", "result": 0.00, "unit": "%"}, {"measurement": "Atherogenic index Mean CFB - 12 weeks results", "setting": "200 mg q.d., week 1", "result": 0.15, "unit": "mmol/L"}, {"measurement": "Atherogenic index Mean percentage CFB - 12 weeks results", "setting": "200 mg q.d., week 1", "result": 4.43, "unit": "%"}, {"measurement": "Atherogenic index Mean percentage CFB - 24 weeks results", "setting": "200 mg q.d., week 1", "result": 4.43, "unit": "%"}, {"measurement": "Atherogenic index Median CFB - 12 weeks results", "setting": "200 mg q.d., week 1", "result": 0.10, "unit": "mmol/L"}, {"measurement": "Atherogenic index Median CFB - 24 weeks results", "setting": "200 mg q.d., week 1", "result": 0.10, "unit": "mmol/L"}, {"measurement": "Atherogenic index Median percentage CFB - 12 weeks results", "setting": "200 mg q.d., week 1", "result": 1.96, "unit": "%"}, {"measurement": "Atherogenic index Median percentage CFB - 24 weeks results", "setting": "200 mg q.d., week 1", "result": 1.96, "unit": "%"}, {"measurement": "Atherogenic index Mean CFB - 12 weeks results", "setting": "200 mg q.d., week 2", "result": -0.09, "unit": "mmol/L"}, {"measurement": "Atherogenic index Mean percentage CFB - 12 weeks results", "setting": "200 mg q.d., week 2", "result": "−2.14", "unit": "%"}, {"measurement": "Atherogenic index Mean percentage CFB - 24 weeks results", "setting": "200 mg q.d., week 2", "result": "−2.14", "unit": "%"}, {"measurement": "Atherogenic index Median CFB - 12 weeks results", "setting": "200 mg q.d., week 2", "result": 0.00, "unit": "mmol/L"}, {"measurement": "Atherogenic index Median CFB - 24 weeks results", "setting": "200 mg q.d., week 2", "result": 0.00, "unit": "mmol/L"}, {"measurement": "Atherogenic index Median percentage CFB - 12 weeks results", "setting": "200 mg q.d., week 2", "result": 0.00, "unit": "%"}, {"measurement": "Atherogenic index Median percentage CFB - 24 weeks results", "setting": "200 mg q.d., week 2", "result": 0.00, "unit": "%"}, {"measurement": "Atherogenic index Mean CFB - 12 weeks results", "setting": "200 mg q.d., week 4", "result": -0.18, "unit": "mmol/L"}, {"measurement": "Atherogenic index Mean percentage CFB - 12 weeks results", "setting": "200 mg q.d., week 4", "result": "−3.89", "unit": "%"}, {"measurement": "Atherogenic index Mean percentage CFB - 24 weeks results", "setting": "200 mg q.d., week 4", "result": "−3.89", "unit": "%"}, {"measurement": "Atherogenic index Median CFB - 12 weeks results", "setting": "200 mg q.d., week 4", "result": -0.10, "unit": "mmol/L"}, {"measurement": "Atherogenic index Median CFB - 24 weeks results", "setting": "200 mg q.d., week 4", "result": -0.10, "unit": "mmol/L"}, {"measurement": "Atherogenic index Median percentage CFB - 12 weeks results", "setting": "200 mg q.d., week 4", "result": "−3.65", "unit": "%"}, {"measurement": "Atherogenic index Median percentage CFB - 24 weeks results", "setting": "200 mg q.d., week 4", "result": "−3.65", "unit": "%"}, {"measurement": "Atherogenic index Mean CFB - 12 weeks results", "setting": "200 mg q.d., week 8", "result": -0.16, "unit": "mmol/L"}, {"measurement": "Atherogenic index Mean percentage CFB - 12 weeks results", "setting": "200 mg q.d., week 8", "result": "−3.33", "unit": "%"}, {"measurement": "Atherogenic index Mean percentage CFB - 24 weeks results", "setting": "200 mg q.d., week 8", "result": "−3.33", "unit": "%"}, {"measurement": "Atherogenic index Median CFB - 12 weeks results", "setting": "200 mg q.d., week 8", "result": -0.10, "unit": "mmol/L"}, {"measurement": "Atherogenic index Median CFB - 24 weeks results", "setting": "200 mg q.d., week 8", "result": -0.10, "unit": "mmol/L"}, {"measurement": "Atherogenic index Median percentage CFB - 12 weeks results", "setting": "200 mg q.d., week 8", "result": "−3.33", "unit": "%"}, {"measurement": "Atherogenic index Median percentage CFB - 24 weeks results", "setting": "200 mg q.d., week 8", "result": "−3.33", "unit": "%"}, {"measurement": "Atherogenic index Mean CFB - 12 weeks results", "setting": "200 mg q.d., week 12", "result": -0.04, "unit": "mmol/L"}, {"measurement": "Atherogenic index Mean percentage CFB - 12 weeks results", "setting": "200 mg q.d., week 12", "result": 0.54, "unit": "%"}, {"measurement": "Atherogenic index Mean percentage CFB - 24 weeks results", "setting": "200 mg q.d., week 12", "result": 0.54, "unit": "%"}, {"measurement": "Atherogenic index Median CFB - 12 weeks results", "setting": "200 mg q.d., week 12", "result": 0.00, "unit": "mmol/L"}, {"measurement": "Atherogenic index Median CFB - 24 weeks results", "setting": "200 mg q.d., week 12", "result": 0.00, "unit": "mmol/L"}, {"measurement": "Atherogenic index Median percentage CFB - 12 weeks results", "setting": "200 mg q.d., week 12", "result": 0.00, "unit": "%"}, {"measurement": "Atherogenic index Median percentage CFB - 24 weeks results", "setting": "200 mg q.d., week 12", "result": 0.00, "unit": "%"}, {"measurement": "Atherogenic index Mean percentage CFB - 24 weeks results", "setting": "200 mg q.d., week 16", "result": 0.42, "unit": "%"}, {"measurement": "Atherogenic index Median CFB - 24 weeks results", "setting": "200 mg q.d., week 16", "result": 0.00, "unit": "mmol/L"}, {"measurement": "Atherogenic index Median percentage CFB - 24 weeks results", "setting": "200 mg q.d., week 16", "result": 0.00, "unit": "%"}, {"measurement": "Atherogenic index Mean percentage CFB - 24 weeks results", "setting": "200 mg q.d., week 20", "result": "−1.40", "unit": "%"}, {"measurement": "Atherogenic index Median CFB - 24 weeks results", "setting": "200 mg q.d., week 20", "result": -0.20, "unit": "mmol/L"}, {"measurement": "Atherogenic index Median percentage CFB - 24 weeks results", "setting": "200 mg q.d., week 20", "result": "−3.77", "unit": "%"}, {"measurement": "Atherogenic index Mean percentage CFB - 24 weeks results", "setting": "200 mg q.d., week 24", "result": 0.92, "unit": "%"}, {"measurement": "Atherogenic index Median CFB - 24 weeks results", "setting": "200 mg q.d., week 24", "result": -0.10, "unit": "mmol/L"}, {"measurement": "Atherogenic index Median percentage CFB - 24 weeks results", "setting": "200 mg q.d., week 24", "result": "−2.58", "unit": "%"}, {"measurement": "Atherogenic index Mean percentage CFB - 24 weeks results", "setting": "[1]", "result": "−6.56", "unit": "%"}, {"measurement": "Atherogenic index Median CFB - 24 weeks results", "setting": "[1]", "result": -0.20, "unit": "mmol/L"}, {"measurement": "Atherogenic index Median percentage CFB - 24 weeks results", "setting": "[1]", "result": "−5.40", "unit": "%"}, {"measurement": "Atherogenic index Mean percentage CFB - 24 weeks results", "setting": "[2]", "result": "−5.24", "unit": "%"}, {"measurement": "Atherogenic index Median CFB - 24 weeks results", "setting": "[2]", "result": -0.30, "unit": "mmol/L"}, {"measurement": "Atherogenic index Median percentage CFB - 24 weeks results", "setting": "[2]", "result": "−7.87", "unit": "%"}, {"measurement": "Atherogenic index Mean percentage CFB - 24 weeks results", "setting": "[3]", "result": "−3.22", "unit": "%"}, {"measurement": "Atherogenic index Median CFB - 24 weeks results", "setting": "[3]", "result": -0.10, "unit": "mmol/L"}, {"measurement": "Atherogenic index Median percentage CFB - 24 weeks results", "setting": "[3]", "result": "−3.57", "unit": "%"}]}
